{"source": "paper PMC11053447", "about": "“Human ABC and SLC Transporters: The Culprit Responsible for Unspecific PSMA-617 Uptake?” (Pharmaceuticals, 2024)", "biological_target": "T1, human PEPT2 (Homo sapiens, UniProt Q16348)", "T1 sequence (Q16348 1-729)": "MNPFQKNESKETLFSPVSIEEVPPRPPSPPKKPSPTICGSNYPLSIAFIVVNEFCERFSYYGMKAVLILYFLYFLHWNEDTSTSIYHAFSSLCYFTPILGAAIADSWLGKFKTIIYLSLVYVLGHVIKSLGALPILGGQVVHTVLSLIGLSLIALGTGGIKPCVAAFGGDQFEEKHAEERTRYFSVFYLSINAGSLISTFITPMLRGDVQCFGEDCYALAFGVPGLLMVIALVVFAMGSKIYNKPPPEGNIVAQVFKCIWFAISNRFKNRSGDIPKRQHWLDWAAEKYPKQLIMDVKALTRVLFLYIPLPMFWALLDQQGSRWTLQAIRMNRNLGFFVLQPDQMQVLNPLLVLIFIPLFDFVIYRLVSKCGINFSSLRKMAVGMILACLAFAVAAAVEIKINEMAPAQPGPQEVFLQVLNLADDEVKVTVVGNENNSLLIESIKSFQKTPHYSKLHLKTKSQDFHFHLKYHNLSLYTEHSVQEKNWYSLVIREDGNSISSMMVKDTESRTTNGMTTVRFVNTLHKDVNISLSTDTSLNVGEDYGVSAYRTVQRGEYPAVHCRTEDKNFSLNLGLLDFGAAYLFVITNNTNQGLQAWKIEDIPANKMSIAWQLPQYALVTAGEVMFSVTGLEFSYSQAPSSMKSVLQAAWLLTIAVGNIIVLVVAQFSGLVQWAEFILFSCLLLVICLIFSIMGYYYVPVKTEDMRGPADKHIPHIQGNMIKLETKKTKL", "experiment": "SLC transporter substrate assay, CHO-K1-PEPT2 vs control CHO-K1 cells", "settings": "20 min; for Max. transporter-specific fold accumulation, without inhibitor / Max. transporter-specific fold accumulation, with inhibitor: 0.3 µM; for Max. transporter-specific fold accumulation, with inhibitor: Cefadroxil", "protocol": "The described cells were plated onto standard 24-well tissue culture plates at densities of 5 × 10^5 cells/well. […] Before starting the experiment, the cells were prepared by removing the medium and washing the cells twice with 300 µL of assay buffer. […] The cells were lysed by adding 300 µL of 0.1N NaOH, they were incubated for 10 min at 37 °C and 100 µL samples were taken from all the wells.\nThe amount of protein in each well was quantified using the BCA kit for protein determination (Sigma-Aldrich, St Louis, MO, USA). Positive controls were performed using a separate 96-well plate format according to Table S8 in SI4.\nSI4. Results of transporter substrate assays (SLC)\nTable S8: Parameters of positive controls, control cell lines and plating for SLC transporters assays.\nKH: Krebs-Henseleit buffer, HBSS: Hank's balanced salt solution, MES: 2 -(N-morpholino) ethanesulfonic acid, cGMP:\nGuanosine cyclic phosphate, E3S: Estrone -3-sulfate, Gly-Sar: Glycylsarcosine, MPP+: 1-methyl-4-phenylpyridinium.\nCalculation of fold accumulation values for SLC transporter substrate assays The fold accumulation value was defined as the ratio of uptake of the test substance (TS) or probe substrate into transfected and control cells. If the fold accumulation is > 2 and can be inhibited by a known inhibitor of the transporter, the test substance can be considered as a substrate of the respective transporter.\nFold accumulation = UPTTRP\n• UPTTRP: accumulated amount of test substance (TS) or probe substrate in transfected cells normalized by protein content […]\n• UPTCTRL: accumulated amount of test substance (TS) or probe substrate in control cells normalized by protein content […]\nPositive control conducted at pH 5.0.\nGly-Sar: Glycylsarcosine.", "key": {"[1]": {"settings": "pH 5.0, 0.03 µM nominal + Cefadroxil 200 µM"}, "[2]": {"settings": "pH 5.0, 0.03 µM nominal, no inhibitor"}, "[3]": {"settings": "pH 5.0, 0.30 µM nominal + Cefadroxil 200 µM"}, "[4]": {"settings": "pH 5.0, 0.30 µM nominal, no inhibitor"}, "[5]": {"settings": "pH 6.0, 0.03 µM nominal + Cefadroxil 200 µM"}, "[6]": {"settings": "pH 6.0, 0.03 µM nominal, no inhibitor"}, "[7]": {"settings": "pH 6.0, 0.30 µM nominal + Cefadroxil 200 µM"}, "[8]": {"settings": "pH 6.0, 0.30 µM nominal, no inhibitor"}}}
{"smiles": "[3H]C(c1ccc2ccccc2c1)C([3H])(NC(=O)C1CCC(CNC(=O)CN2CCN(CC(=O)[O-])CCN(CC(=O)[O-])CCN(CC(=O)[O-])CC2)CC1)C(=O)NCCCCC(NC(=O)NC(CCC(=O)O)C(=O)O)C(=O)O.[Lu+3]", "note": "(stereo not drawn) [([α,β-^3H]Nal)Lu-PSMA-617]", "values": [{"measurement": "Uptake via transporter (PEPT2)", "setting": "pH 5.0 and 6.0, absence and presence of cefadroxil", "value": "not taken up"}, {"measurement": "Accumulation in PEPT2 transporter expressing cells", "setting": "[1]", "value": "0.16 ± 0.03", "unit": "pmol/mg protein"}, {"measurement": "Accumulation in control cells", "setting": "[1]", "value": "0.08 ± 0.00", "unit": "pmol/mg protein"}, {"measurement": "Accumulation, active transport", "setting": "[1]", "value": "0.08 ± 0.03", "unit": "pmol/mg protein"}, {"measurement": "Fold accumulation", "setting": "[1]", "value": 1.94}, {"measurement": "Accumulation in PEPT2 transporter expressing cells", "setting": "[2]", "value": "0.16 ± 0.03", "unit": "pmol/mg protein"}, {"measurement": "Accumulation in control cells", "setting": "[2]", "value": "0.12 ± 0.01", "unit": "pmol/mg protein"}, {"measurement": "Accumulation, active transport", "setting": "[2]", "value": "0.04 ± 0.03", "unit": "pmol/mg protein"}, {"measurement": "Fold accumulation", "setting": "[2]", "value": 1.34}, {"measurement": "Accumulation in PEPT2 transporter expressing cells", "setting": "[3]", "value": "1.58 ± 0.48", "unit": "pmol/mg protein"}, {"measurement": "Accumulation in control cells", "setting": "[3]", "value": "0.70 ± 0.12", "unit": "pmol/mg protein"}, {"measurement": "Accumulation, active transport", "setting": "[3]", "value": "0.88 ± 0.50", "unit": "pmol/mg protein"}, {"measurement": "Fold accumulation", "setting": "[3]", "value": 2.27}, {"measurement": "Accumulation in PEPT2 transporter expressing cells", "setting": "[4]", "value": "1.70 ± 0.50", "unit": "pmol/mg protein"}, {"measurement": "Accumulation in control cells", "setting": "[4]", "value": "0.87 ± 0.16", "unit": "pmol/mg protein"}, {"measurement": "Accumulation, active transport", "setting": "[4]", "value": "0.83 ± 0.53", "unit": "pmol/mg protein"}, {"measurement": "Fold accumulation", "setting": "[4]", "value": 1.95}, {"measurement": "Max. transporter-specific fold accumulation, without inhibitor", "setting": "pH 5.0", "value": 1.95}, {"measurement": "Max. transporter-specific fold accumulation, with inhibitor", "setting": "pH 5.0", "value": 2.27}, {"measurement": "Accumulation in PEPT2 transporter expressing cells", "setting": "[5]", "value": "0.17 ± 0.05", "unit": "pmol/mg protein"}, {"measurement": "Accumulation in control cells", "setting": "[5]", "value": "0.08 ± 0.01", "unit": "pmol/mg protein"}, {"measurement": "Accumulation, active transport", "setting": "[5]", "value": "0.09 ± 0.05", "unit": "pmol/mg protein"}, {"measurement": "Fold accumulation", "setting": "[5]", "value": 2.21}, {"measurement": "Accumulation in PEPT2 transporter expressing cells", "setting": "[6]", "value": "0.15 ± 0.05", "unit": "pmol/mg protein"}, {"measurement": "Accumulation in control cells", "setting": "[6]", "value": "0.10 ± 0.04", "unit": "pmol/mg protein"}, {"measurement": "Accumulation, active transport", "setting": "[6]", "value": "0.06 ± 0.06", "unit": "pmol/mg protein"}, {"measurement": "Fold accumulation", "setting": "[6]", "value": 1.57}, {"measurement": "Accumulation in PEPT2 transporter expressing cells", "setting": "[7]", "value": "1.57 ± 0.55", "unit": "pmol/mg protein"}, {"measurement": "Accumulation in control cells", "setting": "[7]", "value": "0.70 ± 0.16", "unit": "pmol/mg protein"}, {"measurement": "Accumulation, active transport", "setting": "[7]", "value": "0.88 ± 0.58", "unit": "pmol/mg protein"}, {"measurement": "Fold accumulation", "setting": "[7]", "value": 2.26}, {"measurement": "Accumulation in PEPT2 transporter expressing cells", "setting": "[8]", "value": "1.57 ± 0.45", "unit": "pmol/mg protein"}, {"measurement": "Accumulation in control cells", "setting": "[8]", "value": "0.87 ± 0.07", "unit": "pmol/mg protein"}, {"measurement": "Accumulation, active transport", "setting": "[8]", "value": "0.70 ± 0.45", "unit": "pmol/mg protein"}, {"measurement": "Fold accumulation", "setting": "[8]", "value": 1.81}, {"measurement": "Max. transporter-specific fold accumulation, without inhibitor", "setting": "pH 6.0", "value": 1.81}, {"measurement": "Max. transporter-specific fold accumulation, with inhibitor", "setting": "pH 6.0", "value": 2.26}]}
